Measurements: patent US20230137092A1, “Composition and Method for the Treatment and Prevention of Cardiac, Pulmonary, Dermal, and Renal Fibrosis” (EMERALD HEALTH PHARMACEUTICALS INC., priority 2020, published 2023)

Columns and labels:
[1] = test system: inflammatory and fibrotic marker mRNAs in heart; assay: Real-time quantitative PCR of inflammatory and fibrotic markers in heart, Ang II preventive model; format: in vivo, mouse; settings: Ang II infused mice; 2-ΔΔCt method
[2] = test system: Ang II-induced renal fibrosis; assay: Ang II-induced renal fibrosis, preventive model, Sirius Red; format: in vivo, mouse; settings: Ang II 1.0 mg kg^- min^- two weeks, 20 mg/kg oral gavage
Protocol: Ang II is the main peptide of the renin angiotensin system and a renal growth factor, inducing hyperplasia/hypertrophy depending on the cell type, and it induces renal fibrosis. Renal fibrosis was induced in mice by infusion of Ang II (1.0 mg kg^− min^−) for two weeks. The treatment with the compound of Formula (VIII) by oral gavage was the same as describe in Example 2. After two weeks of treatment, the mice were sacrificed under ether anesthesia. Kidney samples were collected and fixed in 4% paraformaldehyde and embedded in paraffin. The paraffin sections (5 μm) were stained with Sirius Red for evaluation of fibrosis. Subcutaneous Ang II infusion induced a significant increase of collagen content and in the mice treated with compound, the induction of fibrosis in the kidney is prevented (FIG. 10).

[3] = test system: Ang II-induced cardiac fibrosis; assay: Ang II therapeutic model: perivascular myocardial collagen deposition; format: in vivo, mouse; settings: Ang II 500 ng kg^- min^- 28 days, 20 mg/kg oral during last 14 days, ##p<0.01 versus Ang II group
Protocol: (§1) For the therapeutic model, infusion of Ang II for four weeks and the compound of Formula (VIII) (20 mg/kg) was administrated after two weeks of pump implantation. Subcutaneous infusion of Ang II using ALZET osmotic minipumps was used to study the preventive effects of the compound ALZET® osmotic minipumps (Model #2004, Charles Rives, Barcelona, Spain) delivering of Ang II (500 ng kg^−1 min^−1) (Sigma-Aldrich, Madrid, Spain) for four weeks. Compound treatment was daily administered in parallel, two weeks after the implantation of the subcutaneous pump, beneath the midscapular loose skin and consisted of daily oral gavage of compound of Formula (VIII) (20 mg/kg) or vehicle (Corn Oil/Maisine CC, 1/1). Mice were acclimated to manipulators for a week previously to the experiments in order to reduce stress and allow the detection of subtle changes in behavior by researchers. […] Neither piloerection nor hunched appearances were appreciated during the experimental procedures. Mice were sacrificed by cervical dislocation and the heart, aorta, kidney, and lung were removed and processed for histological examination or were frozen for further analysis.

[4] = test system: Ang II-induced aortic fibrosis; assay: Ang II therapeutic model: aorta adventitial collagen, Sirius red; format: in vivo, mouse; settings: Ang II four weeks, 20 mg/kg oral last two weeks, ###p<0.001 versus Ang II group
Protocol: as §1

[5] = test system: Ang II-induced renal fibrosis; assay: Ang II therapeutic model: renal fibrosis, Sirius red; format: in vivo, mouse; settings: Ang II four weeks, 20 mg/kg oral last two weeks, #p<0.05 versus Ang II group
Protocol: as §1

[6] = test system: Ang II-induced pulmonary fibrosis; assay: Ang II therapeutic model: lung fibrosis, Masson's trichrome, Ashcroft score; format: in vivo, mouse; settings: Ang II four weeks, 20 mg/kg oral last two weeks, ###p<0.001 versus Ang II group
Protocol: Lung fibrosis was induced in mice by infusion of Ang II (500 ng kg^− min^−) for four weeks. The treatment with the compound of Formula (VIII) by oral gavage was the same as describe in Example 9. After two weeks of treatment, the mice were sacrificed under ether anesthesia. Lung samples were collected and fixed in 4% paraformaldehyde and embedded in paraffin. The paraffin sections (5 μm) were stained with Masson's trichrome (Merck Millipore, Darmstadt, Germany) for evaluation of fibrosis. Three-four random fields of each lung biopsy were photographed, digitalized using a Leica DFC420c camera and analyzed using Image J software in a blinded manner by two independent observers. The Ashcroft score was used to determine the degree of fibrosis in lung specimens as previously described (Ashcroft T et al., 1988, Clin. Pathol., 41:467-470; Hubner R H et al., 2008, Biotechniques, 44:507-511). Subcutaneous Ang II infusion induced pulmonary fibrosis which is prevented with compound (FIG. 15).

hICF cells = assay: Real-time PCR of IL1b, IL6, Col1A2 and CCL2 mRNA in hICF; format: cell-based, human; settings: induced by Ang II or TGFb in hICF cells
Protocol: hICF (5×10^4 cells/cm^2) were preincubated with Compound of Formula (VIII), stimulated with Ang II for either 2 hours or 24 hours and total RNA was extracted using High Pure Isolation Kit (Roche Diagnostic, Switzerland). Total RNA (1 μg) was retrotranscribed using the iScript™ cDNA Synthesis Kit (Bio-Rad) and the cDNA analyzed using a CFX96 Real-Time PCR Detection System (Bio-Rad) by real-time PCR using the iQ™ SYBR Green Supermix (Bio-Rad). Human HPRT was used for in vitro studies to standardize the mRNA expression levels in each sample. Expression levels were calculated using the 2-ΔΔCt method. Compound of Formula (VIII) inhibited the mRNA expression of IL1b, IL6, Col1A2 and CCL2, induced by Ang II or TGFb in hICF cells (FIG. 17).

C=C(C)C1CCC(C)=C[C@H]1C1=C(O)C(=O)C(CCCCC)=C(NCc2ccccc2)C1=O (stereo partly drawn) [Formula (VIII)]
IL1β expression level in left ventricle [1]: significantly reduced | IL6 expression level in left ventricle [1]: significantly reduced | TNC expression level in left ventricle [1]: significantly reduced | induction of fibrosis in the kidney (collagen content) [2]: prevented | Ang II perivascular myocardial collagen deposition [3]: reduced | aorta collagen content in adventitial layer [4]: antifibrotic activity | renal fibrosis (collagen accumulation in kidney) [5]: reduced | lung fibrosis (Ashcroft score) [6]: reduced | CCL2 mRNA expression (hICF cells): inhibited | Col1A2 mRNA expression (hICF cells): inhibited | IL1b mRNA expression (hICF cells): inhibited | IL6 mRNA expression (hICF cells): inhibited
